Reference: patent US7109338B2, “1,2-disubstituted 1,4-dihydro-4-oxoquinoline compounds” (priority 1999, dated 2006)
In brackets after ≈: the same amount, converted by molar mass.

How the values were obtained:
HeLa cells = assay: Cytotoxicity (MTT, without virus), HeLa; settings: HeLa, no virus, incubated for 4 days
HRV 2 (HGP) = assay: Anti-rhinovirus activity (MTT), HRV2; type: cell-based, human rhinovirus; settings: HeLa (Ohio strain) cells, MTT method, 33° C.
[1] = system: coxsackievirus type B4 (CB4,JVB); assay: In vitro anti-picornavirus activity (MTT), CB4; type: cell-based; settings: HeLa cells, MTT method, 37° C.
[2] = system: echovirus type 11 (Echo 11, Gregory); assay: In vitro anti-picornavirus activity (MTT), Echo 11; type: cell-based; settings: HeLa-S3 cells, MTT method, 37° C.
[3] = system: Poliovirus type 1 (Polio 1, Sabin); assay: microbe, parasite or virus in culture; type: cell-based
HRV 89 (41617-Gallo) = assay: Anti-rhinovirus activity (MTT), HRV89; type: cell-based, human rhinovirus; settings: HeLa (Ohio strain) cells, MTT method, 33° C.
[4] = system: human rhinovirus type 1B (HRV 1B, B632); assay: Anti-rhinovirus activity (MTT), HRV1B; type: cell-based; settings: HeLa (Ohio strain) cells, MTT method, 33° C.
[5] = system: coxsackievirus type A7 (CA7); assay: In vitro anti-picornavirus activity (MTT), CA7; type: cell-based; settings: HeLa-S3 cells, MTT method, 37° C.
HeLa (Ohio strain)cells = assay: Cytotoxicity (MTT, without virus), HeLa(Ohio); settings: HeLa(Ohio), no virus, incubated for 4 days
HeLa-S3 cells = assay: Cytotoxicity (MTT, without virus), HeLa-S3; settings: HeLa-S3, no virus, incubated for 4 days

| SMILES | Cytotoxicity CC50 HeLa (HeLa cells) [µg/mL] | IC50 HRV2 (HRV 2 (HGP)) [µg/mL] | IC50 CB4 [1] [µg/mL] | IC50 Echo 11 [2] [µg/mL] | IC50 Polio 1 [3] [µg/mL] | IC50 HRV89 (HRV 89 (41617-Gallo)) [µg/mL] | IC50 HRV1B [4] [µg/mL] | IC50 CA7 [5] [µg/mL] | Cytotoxicity CC50 HeLa(Ohio) (HeLa (Ohio strain)cells) [µg/mL] | Cytotoxicity CC50 HeLa-S3 (HeLa-S3 cells) [µg/mL] |
| --- | --- | --- | --- | --- | --- | --- | --- | --- | --- | --- |
| COc1ccc(-c2c(C)c(=O)c3cc(OCC(C)C)c(C)cc3n2C)cc1C [Compound A237] | >4 | 0.29 (≈ 0.764 µM) | 2.9 (≈ 7.64 µM) | 0.40 (≈ 1.05 µM) | 1.1 (≈ 2.9 µM) | 0.46 (≈ 1.21 µM) | 2.0 (≈ 5.27 µM) | >4 | >4 | >4 |
| CCn1c(-c2ccn(C)c2)cc(=O)c2cc(C(C)C)ccc21 [Compound A307] | >20 | 0.39 (≈ 1.32 µM) | 1.3 (≈ 4.42 µM) | 0.34 (≈ 1.15 µM) | 0.79 (≈ 2.68 µM) | 0.86 (≈ 2.92 µM) | 0.83 (≈ 2.82 µM) | 1.9 (≈ 6.45 µM) | 18 | >20 |
| CCn1c(-c2cccc(F)c2)c(C)c(=O)c2cc(C(C)C)ccc21 [Compound A60] | 5.3 | 0.52 (≈ 1.61 µM) | 2.8 (≈ 8.66 µM) | 0.52 (≈ 1.61 µM) | 1.1 (≈ 3.4 µM) | 1.1 (≈ 3.4 µM) | 0.59 (≈ 1.82 µM) | 2.5 (≈ 7.73 µM) | 5.7 | 7.0 |
| Cc1c(-c2ccccc2)n(C)c2ccc(NCC(C)C)cc2c1=O [Compound A157] | >5 | 0.56 (≈ 1.75 µM) | 4.9 (≈ 15.3 µM) | 0.27 (≈ 0.843 µM) | 0.59 (≈ 1.84 µM) | 1.3 (≈ 4.06 µM) | 1.0 (≈ 3.12 µM) | 3.8 (≈ 11.9 µM) | >5 | >5 |
| CCCc1ccc2c(c1)c(=O)c(C)c(-c1ccccc1)n2CC [Compound A30] | 6.0 | 0.48 (≈ 1.57 µM) | 1.8 (≈ 5.89 µM) | 0.42 (≈ 1.38 µM) | 1.0 (≈ 3.27 µM) | 1.0 (≈ 3.27 µM) | 1.6 (≈ 5.24 µM) | 1.2 (≈ 3.93 µM) | 5.8 | 6.5 |
| Cc1cc2c(cc1OCC(C)C)c(=O)c(C)c(-c1ccccc1)n2C [Compound A234] | >5 | 0.26 (≈ 0.775 µM) | 2.5 (≈ 7.45 µM) | 0.25 (≈ 0.745 µM) | 0.89 (≈ 2.65 µM) | 0.32 (≈ 0.954 µM) | 1.0 (≈ 2.98 µM) | 3.8 (≈ 11.3 µM) | >5 | >5 |
| CCn1c(-c2ccccn2)cc(=O)c2cc(C(C)C)ccc21 [Compound A296] | 75 | 2.0 (≈ 6.84 µM) | 17 (≈ 58.1 µM) | 1.7 (≈ 5.81 µM) | 5.1 (≈ 17.4 µM) | 4.8 (≈ 16.4 µM) | 4.5 (≈ 15.4 µM) | 20 (≈ 68.4 µM) | 68 | >100 |
| CCn1c(-c2ccccc2)c(C)c(=O)c2cc(-c3ccccc3)ccc21 [Compound A171] | >2.5 | 0.76 (≈ 2.24 µM) | 2.0 (≈ 5.89 µM) | 0.22 (≈ 0.648 µM) | 0.52 (≈ 1.53 µM) | 0.39 (≈ 1.15 µM) | 0.43 (≈ 1.27 µM) | 1.9 (≈ 5.6 µM) | >2.5 | >2.5 |
| CCn1c(-c2ccccc2)c(C)c(=O)c2ccc(C(C)C)cc21 [Compound A122] | >10 | 0.43 (≈ 1.41 µM) | 5.5 (≈ 18 µM) | 0.54 (≈ 1.77 µM) | 1.2 (≈ 3.93 µM) | 0.35 (≈ 1.15 µM) | 0.59 (≈ 1.93 µM) | 6.9 (≈ 22.6 µM) | >10 | >10 |
